Assay results as given in ChEMBL document CHEMBL1155481, “N-Hydroxybenzimidazole inhibitors of ExsA MAR transcription factor in Pseudomonas aeruginosa: In vitro anti-virulence activity and metabolic stability” (Bioorg Med Chem Lett, 2010).

What was measured:
[1] = target: T1, HTH-type transcriptional regulator ExsA (Pseudomonas aeruginosa (strain ATCC 15692 / PAO1 / 1C / PRS 101 / LMG12228), UniProt P26993); test: Inhibition of Pseudomonas aeruginosa PAO1 ExsA DNA binding activity
T1 sequence (P26993 whole entry): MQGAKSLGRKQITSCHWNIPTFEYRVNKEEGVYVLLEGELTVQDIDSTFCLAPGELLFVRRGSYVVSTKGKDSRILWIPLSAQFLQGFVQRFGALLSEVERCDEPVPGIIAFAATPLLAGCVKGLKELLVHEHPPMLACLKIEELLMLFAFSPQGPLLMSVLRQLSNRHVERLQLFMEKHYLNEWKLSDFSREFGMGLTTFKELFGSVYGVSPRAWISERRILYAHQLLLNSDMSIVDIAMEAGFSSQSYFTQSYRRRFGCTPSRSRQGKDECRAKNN

[2] = Chemical stability of the compound; type: physicochemical
[3] = target: T1, HTH-type transcriptional regulator ExsA; test: Inhibition of Pseudomonas aeruginosa 388 ExsA DNA binding activity
Liver microsomes = test: Metabolic stability in human liver microsome; type: ADME
J774.A1 = test: Cytoprotective activity against Pseudomonas aeruginosa-induced cytotoxicity in mouse J774A1 cells assessed as LDH release at 100 uM; type: functional

CC(=O)c1ccc(/C=C/C(=O)N(CC(=O)O)c2ccc(-c3nc4ccc(C#N)cc4n3O)cc2)cc1
IC50 [1]: > 51 µM
Stability [2]: Stable

CC(=O)c1ccc(/C=C/C(=O)Nc2ccc(-c3nc4ccc([N+](=O)[O-])cc4n3O)cc2)cc1
Stability [2]: Stable
IC50 [3]: 3 µM
Stability (Liver microsomes): Stable
Activity (J774.A1): 22.4%

CSc1ccc(/C=C/C(=O)Nc2ccc(-c3nc4ccc([N+](=O)[O-])cc4n3O)cc2)cn1
IC50 [1]: 6.9 µM
Stability [2]: Stable
Activity (J774.A1): 52.7%

CSc1ccc(/C=C/C(=O)Nc2ccc(-c3nc4ccc([N+](=O)[O-])cc4n3O)cc2)cc1
IC50 [1]: 10.4 µM
Stability [2]: Stable
Activity (J774.A1): >100%

CC(=O)c1ccc(/C=C/C(=O)N(CC(N)=O)c2ccc(-c3nc4ccc([N+](=O)[O-])cc4n3O)cc2)cc1
IC50 [1]: > 47.5 µM
Stability [2]: Stable

CC(=O)c1ccc(/C=C/C(=O)Nc2ccc(-c3nc4ccc(C#N)cc4n3O)cc2)cc1
Stability [2]: Stable
IC50 [3]: 13 µM
Stability (Liver microsomes): Stable
Activity (J774.A1): 19.2%

CC(=O)c1ccc(/C=C/C(=O)N(CC(N)=O)c2ccc(-c3nc4ccc(C#N)cc4n3O)cc2)cc1
IC50 [1]: > 49 µM
Stability [2]: Stable

O=C(/C=C/c1ccc(C(F)(F)F)nc1)Nc1ccc(-c2nc3ccc([N+](=O)[O-])cc3n2O)cc1
IC50 [1]: 6.7 µM
Stability [2]: Stable
Activity (J774.A1): 78.5%

O=C(/C=C/c1ccc(F)cc1)Nc1ccc(-c2nc3ccc([N+](=O)[O-])cc3n2O)cc1
Stability (Liver microsomes): Stable

O=C(/C=C/c1ccc(C(O)(O)C(F)(F)F)cc1)Nc1ccc(-c2nc3ccc([N+](=O)[O-])cc3n2O)cc1
IC50 [1]: > 100 µM
Stability [2]: Stable

CN(C)c1ccc(/C=C/C(=O)Nc2ccc(-c3nc4ccc([N+](=O)[O-])cc4n3O)cc2)cn1
IC50 [1]: > 100 µM
Stability [2]: Stable

O=C(/C=C/c1ccc(-n2ccnc2)nc1)Nc1ccc(-c2nc3ccc([N+](=O)[O-])cc3n2O)cc1
IC50 [1]: 31.2 µM
Stability [2]: Stable

CSc1ccc(/C=C/C(=O)Nc2ccc(-c3nc4ccc(C#N)cc4n3O)cc2)cn1
IC50 [1]: 3.5 µM
Stability [2]: Stable
Activity (J774.A1): 46.6%

CSc1ccc(/C=C/C(=O)Nc2ccc(-c3nc4ccc(C#N)cc4n3O)cc2)cc1
IC50 [1]: 7.3 µM
Stability [2]: Stable
Activity (J774.A1): >100%

CC(=O)c1ccc(/C=C/C(=O)Nc2ccc(-c3nc4c(CC(=O)O)cc([N+](=O)[O-])cc4n3O)cc2)cn1
IC50 [1]: 4.6 µM
Stability [2]: Stable
Activity (J774.A1): 33.1%

CC(=O)c1ccc(/C=C/C(=O)Nc2ccc(-c3nc4ccc([N+](=O)[O-])cc4n3O)cc2)cn1
Stability [2]: Stable
IC50 [3]: 7.5 µM
Activity (J774.A1): 12.1%

CC(=O)c1ccc(/C=C/C(=O)Nc2ccc(-c3nc4c(CC(=O)O)cc([N+](=O)[O-])cc4n3O)cc2)cc1
IC50 [1]: 3.7 µM
Stability [2]: Stable
Activity (J774.A1): 65.4%
